Format in all cases: biochemical
The target of experiment [1] is T1, VhAasS (Vibrio harveyi, UniProt Q00IB3). The experiment in a line: UREA-PAGE and mass spectrometry of ACP loading. The conditions noted are these: holo-E. coli ACP as acceptor, ATP, MgCl2, pH 8, 37 °C overnight.
Experiment [2] has as its target T2, Slr1609 (Synechocystis sp. PCC 6803, UniProt P73004).
T2 sequence (P73004 1-696): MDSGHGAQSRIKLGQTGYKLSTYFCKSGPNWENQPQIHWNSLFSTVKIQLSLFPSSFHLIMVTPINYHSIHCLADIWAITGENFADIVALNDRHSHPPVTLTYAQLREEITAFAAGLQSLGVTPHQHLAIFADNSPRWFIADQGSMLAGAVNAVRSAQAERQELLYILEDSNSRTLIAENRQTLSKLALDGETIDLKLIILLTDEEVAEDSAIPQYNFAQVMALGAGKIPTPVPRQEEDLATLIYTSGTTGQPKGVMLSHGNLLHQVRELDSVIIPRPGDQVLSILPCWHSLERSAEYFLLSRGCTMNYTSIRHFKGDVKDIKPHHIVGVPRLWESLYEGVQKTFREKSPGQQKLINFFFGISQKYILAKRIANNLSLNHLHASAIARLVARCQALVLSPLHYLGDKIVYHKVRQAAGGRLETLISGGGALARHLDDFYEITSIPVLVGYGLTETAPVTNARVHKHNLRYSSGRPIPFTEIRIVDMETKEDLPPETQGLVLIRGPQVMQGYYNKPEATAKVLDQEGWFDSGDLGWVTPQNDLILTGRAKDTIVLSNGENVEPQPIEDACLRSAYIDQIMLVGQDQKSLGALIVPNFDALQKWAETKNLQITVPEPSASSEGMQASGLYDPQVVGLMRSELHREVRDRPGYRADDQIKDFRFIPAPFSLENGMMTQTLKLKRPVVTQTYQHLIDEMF
The experiment in a line: coupled NADH assay at […] nm. The settings on record: decanoic acid, ATP, MgCl2, pH 8 100 mM Tris.

Experiment [3] addresses T3, TTHA0604 (Thermus thermophilus, UniProt Q5SKN9).
T3 sequence (Q5SKN9 1-541): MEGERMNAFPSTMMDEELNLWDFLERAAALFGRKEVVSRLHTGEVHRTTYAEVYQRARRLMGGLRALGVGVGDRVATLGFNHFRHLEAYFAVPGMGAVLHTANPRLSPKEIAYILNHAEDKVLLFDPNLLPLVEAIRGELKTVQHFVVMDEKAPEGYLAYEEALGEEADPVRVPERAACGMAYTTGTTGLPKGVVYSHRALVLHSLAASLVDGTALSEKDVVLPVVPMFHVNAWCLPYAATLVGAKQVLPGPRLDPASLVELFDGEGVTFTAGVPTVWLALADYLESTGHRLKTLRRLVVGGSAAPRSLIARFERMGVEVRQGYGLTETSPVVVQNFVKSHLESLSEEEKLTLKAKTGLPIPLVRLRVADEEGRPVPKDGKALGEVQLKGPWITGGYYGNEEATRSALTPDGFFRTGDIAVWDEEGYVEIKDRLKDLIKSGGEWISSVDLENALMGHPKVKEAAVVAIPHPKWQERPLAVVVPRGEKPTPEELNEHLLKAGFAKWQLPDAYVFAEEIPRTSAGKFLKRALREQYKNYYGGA
The experiment in a line: coupled NADH assay at […] nm. The settings on record: decanoic acid, ATP, MgCl2, pH 8 100 mM Tris.

Experiment [4] deals with T1, VhAasS. The experiment in a line: UREA-PAGE of ACP loading. The conditions noted are these: holo-E. coli AcpP as acceptor, ATP, MgCl2, DTT, 37 °C overnight.

For `O=C(O)CCCCC(=O)c1ccccc1` [5-benzoylvaleric acid], in experiment [1], the “UREA-PAGE and mass spectrometry of ACP loading” value is reported as “functionalized fatty acids”. `CC(C)(COP(=O)(O)OP(=O)(O)OC[C@H]1O[C@@H](n2cnc3c(N)ncnc32)[C@H](O)[C@@H]1OP(=O)(O)O)[C@@H](O)C(=O)NCCC(=O)NCCS` [coenzyme A]: the “coupled NADH assay at 340 nm; DTNB assay of CoA consumption; HPLC-MS” value in experiment [2] was “both TTHA0604 and Slr1609 show acyl-CoA ligase activity”; in experiment [3], “both TTHA0604 and Slr1609 show acyl-CoA ligase activity”. For the molecule `CCCCCCCCCC(=O)O` [decanoic acid], in experiment [4], the “UREA-PAGE of ACP loading” value was “VhAasS showed increased loading over Slr1609, TTHA0604, and AAE15”.

The record behind these values is PMC4224610 (Chemistry & biology, 2014).
